Earlier results as cited in PMC9516332 (Frontiers in Oncology, 2022).
Read-outs that look alike come from different tables or passages of the source.

What was measured:
[1] = molecular target: panel of 255 wild-type kinases (Homo sapiens, UniProt P21802); conditions: kinase FGFR2, 1 µmol/L single concentration, cited from earlier work
[2] = molecular target: panel of 255 wild-type kinases (Homo sapiens, UniProt P23458); conditions: kinase JAK1, 1 µmol/L single concentration, cited from earlier work
[3] = molecular target: panel of 255 wild-type kinases (Homo sapiens, UniProt P29376); conditions: kinase LTK, 1 µmol/L single concentration, cited from earlier work
[4] = molecular target: panel of 255 wild-type kinases (Homo sapiens, UniProt Q05655); conditions: cited from earlier work
[5] = molecular target: panel of 255 wild-type kinases (Homo sapiens, UniProt Q15759); conditions: p38β, 1 µmol/L single concentration, cited from earlier work
[6] = molecular target: panel of 255 wild-type kinases (Homo sapiens, UniProt Q16620); conditions: kinase TRKB, 1 µmol/L single concentration, cited from earlier work
[7] = molecular target: panel of 255 wild-type kinases (Homo sapiens, UniProt Q86Z02); conditions: kinase HIPK1, 1 µmol/L single concentration, cited from earlier work
[8] = molecular target: panel of 255 wild-type kinases (Homo sapiens, UniProt Q8N568); conditions: kinase DCAMKL2, 1 µmol/L single concentration, cited from earlier work
[9] = molecular target: panel of 255 wild-type kinases (Homo sapiens, UniProt Q9H2G2); conditions: kinase SLK, 1 µmol/L single concentration, cited from earlier work
[10] = molecular target: T1, panel of 255 wild-type kinases (Homo sapiens, UniProt Q9UL54); conditions: kinase TAOK2, 1 µmol/L single concentration, cited from earlier work
T1 sequence (Q9UL54 1-1235): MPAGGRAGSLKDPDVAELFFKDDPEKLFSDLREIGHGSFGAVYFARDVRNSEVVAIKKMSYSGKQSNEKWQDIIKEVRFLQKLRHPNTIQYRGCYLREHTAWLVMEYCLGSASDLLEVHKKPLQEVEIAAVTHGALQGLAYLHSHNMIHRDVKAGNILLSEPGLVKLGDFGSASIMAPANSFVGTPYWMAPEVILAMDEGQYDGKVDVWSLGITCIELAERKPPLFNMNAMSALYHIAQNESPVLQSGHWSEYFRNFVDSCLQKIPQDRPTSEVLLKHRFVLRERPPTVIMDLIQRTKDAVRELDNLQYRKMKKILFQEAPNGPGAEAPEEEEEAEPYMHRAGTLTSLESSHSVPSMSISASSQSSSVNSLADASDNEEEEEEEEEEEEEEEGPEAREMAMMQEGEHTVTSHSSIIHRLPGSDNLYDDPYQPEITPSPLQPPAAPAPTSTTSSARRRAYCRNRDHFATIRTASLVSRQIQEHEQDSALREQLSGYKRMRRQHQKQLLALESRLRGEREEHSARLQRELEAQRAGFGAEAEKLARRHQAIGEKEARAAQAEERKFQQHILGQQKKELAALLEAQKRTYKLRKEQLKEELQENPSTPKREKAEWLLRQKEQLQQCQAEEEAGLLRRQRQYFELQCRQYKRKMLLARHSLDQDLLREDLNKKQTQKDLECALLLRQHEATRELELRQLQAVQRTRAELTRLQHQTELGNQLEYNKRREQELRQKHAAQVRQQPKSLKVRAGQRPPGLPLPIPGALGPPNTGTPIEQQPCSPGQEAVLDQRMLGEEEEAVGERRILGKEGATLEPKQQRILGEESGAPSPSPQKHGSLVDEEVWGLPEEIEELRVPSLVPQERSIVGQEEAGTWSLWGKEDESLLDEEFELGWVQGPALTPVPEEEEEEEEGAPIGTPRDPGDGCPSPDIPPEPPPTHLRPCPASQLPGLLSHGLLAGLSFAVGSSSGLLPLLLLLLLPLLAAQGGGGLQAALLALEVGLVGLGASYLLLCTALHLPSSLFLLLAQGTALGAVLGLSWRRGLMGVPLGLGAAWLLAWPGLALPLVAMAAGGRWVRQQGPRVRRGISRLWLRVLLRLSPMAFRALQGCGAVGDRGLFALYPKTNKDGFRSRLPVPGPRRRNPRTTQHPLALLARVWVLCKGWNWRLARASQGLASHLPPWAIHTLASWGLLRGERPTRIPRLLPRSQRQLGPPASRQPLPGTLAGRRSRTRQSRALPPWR

[11] = molecular target: panel of 255 wild-type kinases (Homo sapiens, UniProt Q9Y3S1); conditions: kinase WNK2, 1 µmol/L single concentration, cited from earlier work
[12] = molecular target: panel of 255 wild-type kinases (Homo sapiens, UniProt Q9Y5S2); conditions: MRCKβ, 1 µmol/L single concentration, cited from earlier work
[13] = ref DOI: 10.1371/journal.pone.0092146
[14] = kinase PKCδ, 1 µmol/L single concentration, ref DOI: 10.1371/journal.pone.0092146
[15] = ref DOI: 10.1158/1535-7163.MCT-18-0877
[16] = kinase PKCδ, 1 µmol/L single concentration, ref DOI: 10.1158/1535-7163.MCT-18-0877

SMILES	%-inhibition at 1 µmol/L, FGFR2 [1, 13] [%]	%-inhibition at 1 µmol/L, JAK1 [2, 13] [%]	%-inhibition at 1 µmol/L, LTK [3, 13] [%]	%-inhibition at 1 µmol/L, PKCδ [4, 14] [%]	%-inhibition, p38β [5, 13] [%]	%-inhibition at 1 µmol/L, TRKB [6, 13] [%]	%-inhibition at 1 µmol/L, HIPK1 [7, 13] [%]	%-inhibition at 1 µmol/L, DCAMKL2 [8, 13] [%]	%-inhibition at 1 µmol/L, FGFR2 [1, 15] [%]	%-inhibition at 1 µmol/L, JAK1 [2, 15] [%]	%-inhibition at 1 µmol/L, LTK [3, 15] [%]	%-inhibition at 1 µmol/L, PKCδ [4, 16] [%]	%-inhibition, p38β [5, 15] [%]	%-inhibition at 1 µmol/L, TRKB [6, 15] [%]	%-inhibition at 1 µmol/L, HIPK1 [7, 15] [%]	%-inhibition at 1 µmol/L, DCAMKL2 [8, 15] [%]	%-inhibition at 1 µmol/L, SLK [9, 15] [%]	%-inhibition at 1 µmol/L, TAOK2 [10, 15] [%]	%-inhibition at 1 µmol/L, WNK2 [11, 15] [%]	%-inhibition, MRCKβ [12, 15] [%]	further results
CCCS(=O)(=O)Nc1ccc(F)c(C(=O)c2c[nH]c3ncc(-c4ccc(Cl)cc4)cc23)c1F [vemurafenib]	10	46	2.6	-5	24	11	-4.72	-3.52	–	–	–	–	–	–	–	–	–	–	–	–	%-inhibition at 1 µmol/L, SLK [9, 13]: 43%; %-inhibition at 1 µmol/L, TAOK2 [10, 13]: 5.35%; %-inhibition at 1 µmol/L, WNK2 [11, 13]: 13%; %-inhibition, MRCKβ [12, 13]: -5%
CC(=O)Nc1cccc(-n2c(=O)n(C3CC3)c(=O)c3c(Nc4ccc(I)cc4F)n(C)c(=O)c(C)c32)c1 [trametinib]	-2.64	-1.83	-7	-4.75	2.31	-3.4	-3.71	-2.4	–	–	–	–	–	–	–	–	–	–	–	–	%-inhibition at 1 µmol/L, SLK [9, 13]: -2.6%; %-inhibition at 1 µmol/L, TAOK2 [10, 13]: -2.59%; %-inhibition at 1 µmol/L, WNK2 [11, 13]: 1.45%; %-inhibition, MRCKβ [12, 13]: -2.56%
CCc1cc2c(cc1N1CCC(N3CCOCC3)CC1)C(C)(C)c1[nH]c3cc(C#N)ccc3c1C2=O [alectinib]	–	–	–	–	–	–	–	–	2	-10	99	1.83	0.144	38	2.52	7	12	5.52	1.16	-5	–
CC(C)(C)c1nc(-c2cccc(NS(=O)(=O)c3c(F)cccc3F)c2F)c(-c2ccnc(N)n2)s1 [dabrafenib]	4	5.7	2.67	-6	5.3	86	70	19	–	–	–	–	–	–	–	–	–	–	–	–	%-inhibition at 1 µmol/L, SLK [9, 13]: 12%; %-inhibition at 1 µmol/L, TAOK2 [10, 13]: 34%; %-inhibition at 1 µmol/L, WNK2 [11, 13]: 0.686%; %-inhibition, MRCKβ [12, 13]: -2.85%
CC#CC(=O)N1CCC[C@H]1c1nc(-c2ccc(C(=O)Nc3ccccn3)cc2)c2c(N)nccn12 [acalabrutinib]	–	–	–	–	–	–	–	–	-6	-13	10	-9	-3	14	-15	4.63	1.61	5.31	0.787	-16	–
O=C(c1ccc(F)c(F)c1Nc1ccc(I)cc1F)N1CC(O)([C@@H]2CCCCN2)C1 [cobimetinib]	–	–	–	–	–	–	–	–	-2.8	-8.53	2.85	-2.12	4	-1.39	6.62	-9	6	5.42	5	0.0776	–
C=CC(=O)Nc1cc(Nc2nccc(-c3cn(C)c4ccccc34)n2)c(OC)cc1N(C)CCN(C)C [osimertinib]	–	–	–	–	–	–	–	–	5.56	-6	97	16	4.56	-0.7	34	-7	17	7	4.6	12	–
Cc1cc(Nc2ncc(Cl)c(Nc3ccccc3S(=O)(=O)C(C)C)n2)c(OC(C)C)cc1C1CCNCC1 [ceritinib]	–	–	–	–	–	–	–	–	15	-4.51	100	5	2.35	20	12	85	64	7	-1.28	-0.678	–
CO[C@@H]1[C@H](N(C)C(=O)c2ccccc2)C[C@H]2O[C@]1(C)n1c3ccccc3c3c4c(c5c6ccccc6n2c5c31)C(=O)NC4 [midostaurin]	–	–	–	–	–	–	–	–	97	97	90	–	1.19	99	12	8	85	9	0.935	18	%-inhibition at 1 µmol/L, PKCδ [4]: 93%
